Measurements as given in patent US7585851B2, “3′-prodrugs of 2′-deoxy-β-L-nucleosides” (priority 2000, dated 2009).
Entries after “also recorded” stand apart in the source; their conditions may differ. Like-named read-outs stand apart in the source and are kept apart here.

Key:
[1] = test system: DHBV; assay: DHBV DNA synthesis in primary duck hepatocyte cultures; type: cell-based, duck hepatitis B virus; details: primary duck hepatocytes (PDH)
[2] = test system: HSV-1; assay: Antiviral panel: HSV-1 (HFF); type: cell-based
[3] = test system: Influenza B; assay: Antiviral panel: Influenza B (MDCK); type: cell-based
[4] = test system: cytosolic extracts of HepG2 cells; assay: Steady state phosphorylation kinetics in HepG2 cytosolic extracts; type: biochemical, human
[5] = type: in vivo, rhesus monkey
Method: The pharmacokinetics of L-dC following oral administration in the rhesus monkey was determined. […] Blood samples for pharmacokinetic analysis were collected pre-dose and at 0.25, 0.5, 1, 2, 3, 6, 8 and 24 hours after dosing. Urine samples for pharmacokinetic analyses were collected via pan catch pre-dose and over the following intervals post-dose: 0-2, 2-4, 4-8 and 8-12 hours, and then at 12-hour intervals thereafter through 336 hours post-dose. The drug was detected and concentration determined using a reverse-phase HPLC technique.

[6] = type: in vivo; details: woodchuck; for AUCt→24: t = […]; for Cmax: analyte = label, read-out: Cmax in plasma
[7] = Single dose bioavailability of dival-L-dC (IV and oral) in cynomologus monkey; type: in vivo, cynomologus monkey (macaca fascicularis)
Text: The drug was quantitated in plasma and urine with a liquid chromatography-mass spectrometry (LC-MS) technique.

[8] = Oral bioavailability of L-dC via dival-L-dC in cynomologus monkey (HPLC study); details: cynomolgus monkey, in vivo, po
Text: The drug was quantitated in plasma and in urine using HPLC analysis.

[9] = test system: Escherichia coli strain WP2uvrA; assay: Plate incorporation mutation assay, E. coli; details: with and without rat liver S-9; up to 5000 mg/plate, 5000 μg/plate
Method: L-dC was tested for its potential to cause mutation at the histidine operon of Salmonella typhimurium strains TA98, TA100, TA1535, and TA1537 and at the tryptophan opeton of Escherichia coli strain WP2uvrA. L-dC at concentrations of […] plus positive and negative controls were tested. […] After incubation for approximately 68 hours, L-dC and controls were evaluated for the number of revertants per plate and integrity of the background microcolony lawn.

[10] = test system: WHV; details: 0.01-10 mg/kg/day orally, woodchucks
[11] = monkey, in vivo, 2000 mg/kg
[12] = L-dC 10 mg/kg oral, rhesus monkey
[13] = dival-L-dC 10 mg/kg oral, monkey

**Q.** For Nc1ccn([C@@H]2C[C@@H](O)[C@H](CO)O2)c(=O)n1 [L-dC, 2′-deoxy-β-L-cytidine], which EC50 [1] is on record?
**A.** Its EC50 is 870 nM.

**Q.** What about the EC50 [2] of the same molecule?
**A.** Its EC50 is greater than 100 µg/mL.

**Q.** And the EC50 [3]?
**A.** The EC50 was greater than 100000 nM.

**Q.** And the Vmax of phosphorylation [4]?
**A.** Its Vmax of phosphorylation is 1.12 mmol/min/mg protein.

**Q.** And the Tmax [5, 12]?
**A.** The Tmax was 0.83 h.

**Q.** And the renal clearance [5, 12]?
**A.** Its renal clearance is 4.55 mL/min/kg.

**Q.** And the t1/2 [5, 12]?
**A.** Its t1/2 is 3.34 h.

**Q.** What about the oral bioavailability ([5]; L-dC oral, rhesus monkey) of the same molecule?
**A.** Its oral bioavailability is roughly 16%.

**Q.** And the “administered oral dose recovered in urine” value ([5]; after 48 hours)?
**A.** Its value is 15%.

**Q.** And the “share of drug excreted / recovered dose in urine, by analyte” value (“share of drug excreted / recovered dose” for short) ([5]; oral L-dC, analyte = label)?
**A.** Its value is roughly 77%.

**Q.** What about the “administered oral dose recovered in urine” value ([5]; within 8 hours) of the same molecule?
**A.** Its value is “Approximately 8.5%”.

**Q.** And the CL ([6]; L-dC 10 mg/kg IV)?
**A.** The CL was 6.5 mL/min/kg.

**Q.** What about the Tmax ([6]; L-dC 10 mg/kg IV) of the same molecule?
**A.** Its Tmax is 0 h.

**Q.** What about the Vd ([6]; L-dC 10 mg/kg IV) of the same molecule?
**A.** The Vd was 1.17 L/kg.

**Q.** And the t1/2 ([6]; L-dC 10 mg/kg IV)?
**A.** The t1/2 was 2.85 h.

**Q.** What about the AUCt→24 ([6]; L-dC 10 mg/kg IV) of the same molecule?
**A.** The AUCt→24 was 174 µM·h.

**Q.** And the Cmax ([6]; L-dC 10 mg/kg IV)?
**A.** Its Cmax is 112 µM.

**Q.** And the “oral bioavailability F” value ([6]; L-dC 10 mg/kg PO vs IV)?
**A.** Its value is 9.57%.

**Q.** What about the Tmax ([6]; L-dC 10 mg/kg PO) of the same molecule?
**A.** The Tmax was 3 h.

**Q.** And the t1/2 ([6]; L-dC 10 mg/kg PO)?
**A.** The t1/2 was 5.22 h.

**Q.** And the AUCt→24 ([6]; L-dC 10 mg/kg PO)?
**A.** The AUCt→24 was 11.3 µM·h.

**Q.** And the Cmax ([6]; L-dC 10 mg/kg PO)?
**A.** Its Cmax is 1.37 µM.

**Q.** And the “share of drug excreted / recovered dose” value ([7]; IV dival-L-dC, analyte = label)?
**A.** Its value is roughly 93%.

**Q.** What about the Cmax ([7]; Intravenous (10 mg/kg Dival-L-dC), analyte = label, read-out: Cmax of each metabolite) of the same molecule?
**A.** The Cmax was 24.6 µM.

**Q.** And the Cmax ([7]; Oral (10 mg/kg dival-L-dC), analyte = label, read-out: Cmax of each metabolite)?
**A.** Its Cmax is 8.26 µM.

**Q.** And the “AUC0.25→8 of L-dC” value ([7]; dival-L-dC 10 mg/kg IV, monkey)?
**A.** Its value is 19.8 µM·h.

**Q.** And the “CL of L-dC” value ([7]; dival-L-dC 10 mg/kg IV, monkey)?
**A.** The value was 16.8 mL/min/kg.

**Q.** What about the “Vd of L-dC” value ([7]; dival-L-dC 10 mg/kg IV, monkey) of the same molecule?
**A.** The value was 2.46 L/kg.

**Q.** And the “t1/2 of L-dC” value ([7]; dival-L-dC 10 mg/kg IV, monkey)?
**A.** Its value is 1.73 h.

**Q.** What about the Cmax ([7]; dival-L-dC 10 mg/kg IV, monkey, read-out: Cmax of L-dC) of the same molecule?
**A.** The Cmax was 24.6 µM.

**Q.** What about the “AUC0.25→8 of L-dC” value [7, 13] of the same molecule?
**A.** Its value is 14.0 µM·h.

**Q.** What about the “Tmax of L-dC” value [7, 13] of the same molecule?
**A.** The value was 0.67 h.

**Q.** And the “t1/2 of L-dC” value [7, 13]?
**A.** The value was 2.28 h.

**Q.** And the “share of plasma drug levels at Cmax” value ([7]; oral dival-L-dC)?
**A.** The value was greater than 99%.

**Q.** And the “share of drug excreted / recovered dose” value ([7]; oral dival-L-dC, analyte = label)?
**A.** Its value is roughly 95%.

**Q.** And the “share of drug excreted / recovered dose” value [8]?
**A.** Its value is roughly 89%.

**Q.** What about the mutagenicity [9] of the same molecule?
**A.** Its mutagenicity is “no evidence of mutagenicity; also recorded: not mutagenic”.

**Q.** What about the “toxicity during four-week treatment and eight-week follow-up” value [10] of the same molecule?
**A.** The value was “no drug-related toxicity; also recorded: no toxicity was observed”.

**Q.** What about the “estimated terminal phase mean half-lives” value [11] of the same molecule?
**A.** Its value is 4 to 5 h.
